# From US4713445A, “Renin inhibitors and treatments using them” (priority 1983, dated 1987)
# Where a SMILES comes first, the peptide text is derived from it. Where no end group is shown, it is not given here. [ ]: non-standard residue; d: D form. The star is where a group is joined. Leuψ(CH2NH)ValIleHisOH = CC[C@H](C)[C@H](NC(=O)[C@@H](NC[C@H](CC(C)C)N*)C(C)C)C(=O)N[C@@H](Cc1c[nH]cn1)C(=O)O; X3 = CC[C@H](C)[C@H](NC(=O)[C@@H](NC[C@H](CC(C)C)N*)C(C)C)C(=O)N[C@@H](Cc1ccc(O)cc1)C(=O)O
# Biological target: T1, human renin (Homo sapiens, UniProt P00797)
# T1 construct: angiotensin-I released from human renin substrate by human resin in human plasma; from tissue; host or cells: human plasma (containing EDTA)
# T1 sequence (P00797 67-406): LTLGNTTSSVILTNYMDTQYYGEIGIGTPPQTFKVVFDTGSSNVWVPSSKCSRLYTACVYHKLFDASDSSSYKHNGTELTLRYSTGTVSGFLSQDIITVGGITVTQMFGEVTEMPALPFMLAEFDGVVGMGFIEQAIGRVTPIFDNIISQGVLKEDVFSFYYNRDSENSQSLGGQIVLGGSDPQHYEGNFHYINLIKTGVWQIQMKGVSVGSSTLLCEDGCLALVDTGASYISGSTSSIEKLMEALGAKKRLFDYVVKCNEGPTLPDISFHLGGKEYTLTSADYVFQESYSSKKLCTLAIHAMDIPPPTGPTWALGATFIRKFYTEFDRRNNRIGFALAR
# Assay: human renin-renin substrate reaction in vitro; radioimmunoassay of angiotensin-I released in human plasma
# Format: biochemical
# Conditions: Table 5; human renin-renin substrate reaction in vitro; read-out: IC50
# Excerpt: Preliminary activity test results in the human […] substrate reaction in vitro are given, with comparative figures for the tetrapeptide analogue (III). […] The test results given herein are based on the methods described by J. A. Miller et al in Clinica Chimica Acta (1980) 101 5-15 and K. Poulsen and J. Jorgensen in J. Clin. Endocrinol. Metab. (1974) 39 816, and is based on the measurement, by radioimmunoassay, of angiotensin-I released from human renin substrate by human resin in human plasma. The inhibitor is dissolved in 0.01N HCl (10 μl) and added to hmman plasma (75 μl) containing EDTA, and angiotensin-I antibody (15 μl) in 3M-Tris/HCl buffer (pH 6.9). After incubation at 37° C. for 0-120 minutes, the enzymic reaction is quenched by the addition of ice-cold 0.25M Tris/HCl buffer (pH 7.4) containing 0.01% of bovine serum albumin. 125I-labelled angiotensin-I is added, followed by equilibration at 4° C. for 48 hours. Free and bound ligand are separated by the addition of dextrancoated charcoal, and the amount of bound radio-ligand determined in a gamma counter.
row,IC50,Compound
1,400 µM,"HPFHLVIH [corresponding nonisosteric peptide, reference compound]"

# Same assay, conditions: Table I; human renin in human plasma; read-out: IC50, μM human
row,IC50,Compound
1,0.025 µM,CC[C@H](C)[C@H](NC(=O)[C@@H](NC[C@H](CC(C)C)NC(=O)[C@H](Cc1c[nH]cn1)NC(=O)[C@H](Cc1ccccc1)NC(=O)[C@@H]1CCCN1C(=O)[C@H](Cc1c[nH]cn1)NC(=O)[C@H]1CCCN1)C(C)C)C(=O)N[C@@H](Cc1c[nH]cn1)C(=O)O [XXIII] (H-[dP]HPFH-{Leuψ(CH2NH)ValIleHisOH})
2,0.01 µM,CC[C@H](C)[C@H](NC(=O)[C@@H](NC[C@H](CC(C)C)NC(=O)[C@H](Cc1c[nH]cn1)NC(=O)[C@H](Cc1ccccc1)NC(=O)[C@@H]1CCCN1C(=O)[C@H](Cc1c[nH]cn1)NC(=O)[C@@H]1CCCN1)C(C)C)C(=O)N[C@@H](Cc1c[nH]cn1)C(=O)O [XXII] (H-PHPFH-{Leuψ(CH2NH)ValIleHisOH})
3,0.55 µM,CC[C@H](C)[C@H](NC(=O)[C@@H](NC[C@H](CC(C)C)NC(=O)[C@H](Cc1c[nH]cn1)NC(=O)[C@H](Cc1ccccc1)NC(=O)[C@@H]1CCCN1C(=O)[C@@H](N)CCCNC(=N)N)C(C)C)C(=O)N[C@@H](Cc1ccc(O)cc1)C(=O)O [XXIV]
4,0.05 µM,CC[C@H](C)[C@H](NC(=O)[C@@H](NC[C@H](CC(C)C)NC(=O)[C@H](Cc1c[nH]cn1)NC(=O)[C@H](Cc1ccccc1)NC(=O)[C@@H]1CCCN1C(=O)[C@@H](N)Cc1c[nH]cn1)C(C)C)C(=O)N[C@@H](Cc1c[nH]cn1)C(=O)N[C@H](CCCCN)C(=O)O [XXI]
5,5.5 µM,CC[C@H](C)[C@H](NC(=O)[C@@H](NC[C@H](CC(C)C)NC(=O)[C@H](Cc1c[nH]cn1)NC(=O)[C@H](Cc1ccccc1)NC(=O)[C@H]1CCCN1C(=O)[C@@H](N)Cc1c[nH]cn1)C(C)C)C(=O)N[C@@H](Cc1c[nH]cn1)C(=O)O [XXXII] (H-H[dP]FH-{Leuψ(CH2NH)ValIleHisOH})
6,0.2 µM,CC[C@H](C)[C@H](NC(=O)[C@@H](NC[C@H](CC(C)C)NC(=O)[C@H](Cc1c[nH]cn1)NC(=O)[C@H](Cc1ccccc1)NC(=O)[C@@H]1CCCN1C(=O)[C@H](N)Cc1c[nH]cn1)C(C)C)C(=O)N[C@@H](Cc1c[nH]cn1)C(=O)N[C@H](CCCCN)C(=O)O [XXXIX]
7,0.06 µM,CC[C@H](C)[C@H](NC(=O)[C@@H](NC[C@H](CC(C)C)NC(=O)[C@H](Cc1c[nH]cn1)NC(=O)[C@H](Cc1ccccc1)NC(=O)[C@@H]1CCCN1C(=O)[C@@H](N)Cc1c[nH]cn1)C(C)C)C(=O)N[C@@H](Cc1c[nH]cn1)C(=O)N[C@@H](CCCCN)C(=O)O [XXXI]
8,0.1 µM,CC[C@H](C)[C@H](NC(=O)[C@@H](NC[C@H](CC(C)C)NC(=O)[C@H](Cc1c[nH]cn1)NC(=O)[C@H](Cc1ccccc1)NC(=O)[C@@H]1CCCN1C(=O)[C@H](Cc1c[nH]cn1)NC(=O)[C@@H]1CCCN1)C(C)C)C(=O)N[C@@H](Cc1c[nH]cn1)C(=O)N[C@H](CCCCN)C(=O)O [XXXVIII]
9,0.6 µM,CC[C@H](C)[C@H](NC(=O)[C@@H](NC[C@H](CC(C)C)NC(=O)[C@H](Cc1c[nH]cn1)NC(=O)[C@H](Cc1ccccc1)NC(=O)[C@@H]1CCCN1C(C)=O)C(C)C)C(=O)N[C@@H](Cc1c[nH]cn1)C(=O)N[C@H](CCCCN)C(=O)O [XXXVII]
10,0.048 µM,CC[C@H](C)[C@H](NC(=O)[C@@H](NC[C@H](CC(C)C)NC(=O)[C@H](Cc1c[nH]cn1)NC(=O)[C@H](Cc1ccccc1)NC(=O)[C@@H]1CCCN1C(=O)[C@H](Cc1c[nH]cn1)NC(=O)[C@@H]1CCCN1)C(C)C)C(=O)N[C@@H](Cc1ccc(O)cc1)C(=O)O [XXX] (H-PHPFH-X3)
11,3 µM,CC[C@H](C)[C@H](NC(=O)[C@@H](NC[C@H](CC(C)C)NC(=O)[C@H](Cc1c[nH]cn1)NC(=O)[C@H](Cc1ccccc1)NC(=O)[C@@H]1CCCN1C(=O)[C@H](Cc1c[nH]cn1)NC(=O)[C@@H]1CCCN1)C(C)C)C(=O)N[C@@H](Cc1ccc(O)cc1)C(=O)NCCCCCN [XX]
